US11026426B2, “Oxadiazole and phenol derivatives as antibacterial and/or herbicidal agents” (NORTHERN ILLINOIS RESEARCH FOUNDATION, priority 2017, dated 2021)
Read-outs that look alike come from different tables or passages of the source.

Assays:
LeIspE = LeIspE (Solanum lycopersicum, UniProt P93841); test: University of Hamburg photometric enzymatic inhibition assay LeIspE; type: biochemical, Lycopersicon esculentum
In short: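 Photometric coupled assay with pyruvate kinase/lactate dehydrogenase following NADH (460 μM). Mix: 100 mM Tris-HCl pH 8.0, 10 mM MgCl2, 1 mM DTT, 2.5 mM phosphoenolpyruvate, 2 mM ATP, 1 mM 4-diphosphocytidyl-2-C-methylerythritol, 1.1% DMSO, 2.4 mU IspE; incubated at 27° C.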

Bacillus cereus = test: Antibacterial preliminary screening BC; type: cell-based; settings: score 0-3; further: key: 0 represents no inhibition; 3 is comparable to commercial antibiotic control
AtIspD = AtIspD (Arabidopsis thaliana, UniProt P69834); test: University of Hamburg photometric enzymatic inhibition assay AtIspD; type: biochemical
Sequence of AtIspD (P69834 62-302): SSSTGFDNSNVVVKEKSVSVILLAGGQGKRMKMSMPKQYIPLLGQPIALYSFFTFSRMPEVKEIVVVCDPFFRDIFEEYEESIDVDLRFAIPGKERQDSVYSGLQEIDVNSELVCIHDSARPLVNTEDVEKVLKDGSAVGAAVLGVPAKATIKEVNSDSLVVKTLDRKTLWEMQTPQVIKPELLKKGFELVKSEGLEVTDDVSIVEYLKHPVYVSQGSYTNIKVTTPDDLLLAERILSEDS
In short: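 Coupled photometric assay: 2.4 mU AtIspD with 1 mM (2R,3S)-2,3-dihydroxy-4-oxopentyl phosphate, 2.1 mM CTP, excess IspE (0.4 U), ATP, pyruvate kinase/lactate dehydrogenase and 460 μM NADH. Run in 100 mM Tris-HCl pH 8.0, 10 mM MgCl2, 1 mM DTT, 1.1% DMSO at 27 °C, monitored photometrically.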

Mycobacterium smegmatis = test: Antibacterial preliminary screening MS; type: cell-based; settings: score 0-3; further: key: 0 represents no inhibition; 3 is comparable to commercial antibiotic control
Pseudomonas aeruginosa = test: Antibacterial preliminary screening PA; type: cell-based; settings: score 0-3; further: key: 0 represents no inhibition; 3 is comparable to commercial antibiotic control
Escherichia coli = test: Antibacterial preliminary screening EC; type: cell-based; settings: score 0-3; further: key: 0 represents no inhibition; 3 is comparable to commercial antibiotic control
AtIspF = AtIspF (Arabidopsis thaliana, UniProt Q9CAK8); test: University of Hamburg photometric enzymatic inhibition assay AtIspF; type: biochemical
Sequence of AtIspF (Q9CAK8 53-231): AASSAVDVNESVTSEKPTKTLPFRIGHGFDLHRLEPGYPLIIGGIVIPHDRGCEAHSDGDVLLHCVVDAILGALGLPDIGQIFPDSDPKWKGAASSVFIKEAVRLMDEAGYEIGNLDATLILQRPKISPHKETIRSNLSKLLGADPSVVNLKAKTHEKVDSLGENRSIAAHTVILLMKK
In short: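 Coupled photometric assay (CMP kinase/pyruvate kinase/lactate dehydrogenase, NADH consumption) with 2.4 mU AtIspF and 1 mM 4-diphosphocytidyl-2C-methylerythritol 2-phosphate, 2 mM ATP, in 100 mM Tris-HCl pH 8.0, 10 mM MgCl2, 1.1% DMSO. Monitored at 27 °C.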

Corynebacterium xerosis = test: Antibacterial preliminary screening CX; type: cell-based; settings: score 0-3
Micrococcus luteus = test: Antibacterial preliminary screening ML; type: cell-based; settings: score 0-3
Klebsiella pneumonia = test: Antibacterial preliminary screening KP; type: cell-based; settings: score 0-3
[1] = biological target: T1, Mycobacterium tuberculosis IspD (MtIspD) (Mycobacterium tuberculosis, UniProt P9WKG9); test: Thermal shift assay against MtIspD; type: binding
T1 sequence (P9WKG9 1-231): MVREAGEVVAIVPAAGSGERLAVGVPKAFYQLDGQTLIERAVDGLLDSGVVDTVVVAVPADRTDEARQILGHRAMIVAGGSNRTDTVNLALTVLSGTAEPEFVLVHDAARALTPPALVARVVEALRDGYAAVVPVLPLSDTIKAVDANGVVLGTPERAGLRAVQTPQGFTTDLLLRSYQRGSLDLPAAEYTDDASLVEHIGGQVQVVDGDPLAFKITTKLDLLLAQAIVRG

lettuce seeds = test: Lettuce leaf assay; type: in vivo; parameters: key: 0 (no effect); 5(complete inhibition or bleaching); settings: ranking 0-5
In short: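 Qualitative assay: compounds in volatile organic solvent applied to filter paper in a petri dish, solvent evaporated, lettuce seeds and 5 mL water added to give test concentrations. Germination, root development and leaf bleaching scored days 3 and 4, ranked 0 (no effect) to 5 (complete inhibition or bleaching).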

[2] = biological target: Lycopersicon esculentum IspE (LeIspE) (Solanum lycopersicum, UniProt P93841); test: Thermal shift assay against LeIspE; type: binding
Sequence of Lycopersicon esculentum IspE (LeIspE) (P93841 89-401): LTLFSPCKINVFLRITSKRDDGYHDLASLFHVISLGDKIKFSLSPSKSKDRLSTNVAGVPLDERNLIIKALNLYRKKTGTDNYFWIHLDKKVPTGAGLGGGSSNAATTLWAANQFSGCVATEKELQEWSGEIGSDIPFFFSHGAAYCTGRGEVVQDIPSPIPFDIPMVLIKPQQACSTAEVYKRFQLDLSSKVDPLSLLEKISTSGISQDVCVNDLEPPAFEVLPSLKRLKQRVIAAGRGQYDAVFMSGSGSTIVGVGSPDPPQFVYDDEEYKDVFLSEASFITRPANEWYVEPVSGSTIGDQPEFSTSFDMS

[3] = tested on: Burkholderia thailandensis; type: cell-based; settings: preliminary screening, score 0-3
[4] = tested on: Corynebacterium pseudodiphtheriae; test: Antibacterial preliminary screening CP; type: cell-based; settings: score 0-3;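 further: 0 is no inhibition and 3 matches the commercial antibiotic control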

Sequence of LeIspE (P93841 89-401): as above

What does the source list for `CC(C)(C)c1nnc(-c2cc3ccccc3[nH]2)o1` [HGN-239, 2-(tert-butyl)-5-(1H-indol-2-yl)-1,3,4-oxadiazole]?
IC50 (LeIspE; read-out: LeIspE IC50): > 1000 µM; BC score (Bacillus cereus): 0; IC50 (AtIspD; read-out: AtIspD IC50): > 1000 µM; melting point: 163 to 168 °C; MS score (Mycobacterium smegmatis): 0; PA score (Pseudomonas aeruginosa): 0; EC score (Escherichia coli): 0; IC50 (AtIspF; read-out: AtIspF IC50): > 1000 µM; CX score (Corynebacterium xerosis): 0; ML score (Micrococcus luteus): 0; KP score (Klebsiella pneumonia): 0; MtIspD melting temp [1]: 49.5 °C; Bleaching (lettuce seeds; 0.5 mM): 0; Germination (lettuce seeds; 0.5 mM): 0; Root Dev. (lettuce seeds; 0.5 mM): 0; Bleaching (lettuce seeds; 1.0 mM): 0; Germination (lettuce seeds; 1.0 mM): 1; Root Dev. (lettuce seeds; 1.0 mM): 0; LeIspE melting point change [2]: −2.50 °C; LeIspE melting temp [2]: 47.00 °C; BT score [3]: 0; CP score [4]: 0

For `c1ccc(CCc2nnc(-c3cc4ccccc4[nH]3)o2)cc1` [HGN-215, 2-(1H-indol-2-yl)-5-phenethyl-1,3,4-oxadiazole], which IC50 (LeIspE; read-out: LeIspE IC50) is on record?
Its IC50 is 430 ± 48 µM.

And the BC score (Bacillus cereus)?
Its BC score is 0.

What about the IC50 (AtIspD; read-out: AtIspD IC50) of the same compound?
The IC50 was > 1000 µM.

What about the melting point of the same compound?
The melting point was 161 to 164 °C.

What about the MS score (Mycobacterium smegmatis) of the same compound?
Its MS score is 0.

What about the PA score (Pseudomonas aeruginosa) of the same compound?
Its PA score is 0.

And the EC score (Escherichia coli)?
The EC score was 0.

And the IC50 (AtIspF; read-out: AtIspF IC50)?
The IC50 was > 1000 µM.

What about the CX score (Corynebacterium xerosis) of the same compound?
The CX score was 0.

And the ML score (Micrococcus luteus)?
The ML score was 0.

What about the KP score (Klebsiella pneumonia) of the same compound?
Its KP score is 0.

And the “MtIspD melting point change” value [1]?
Its value is 0.8 °C.

What about the MtIspD melting temp [1] of the same compound?
Its MtIspD melting temp is 48.8 °C.

And the Bleaching (lettuce seeds; 0.15 mM)?
Its Bleaching is 0.

And the Germination (lettuce seeds; 0.15 mM)?
Its Germination is 0.

And the “Root Dev.” value (lettuce seeds; 0.15 mM)?
The value was 0.

What about the Bleaching (lettuce seeds; 0.3 mM) of the same compound?
The Bleaching was 0.

And the Germination (lettuce seeds; 0.3 mM)?
Its Germination is 0.

And the “Root Dev.” value (lettuce seeds; 0.3 mM)?
The value was 0.

What about the “LeIspE melting point change” value [2] of the same compound?
Its value is −2.00 °C.

And the LeIspE melting temp [2]?
Its LeIspE melting temp is 47.50 °C.

What about the BT score [3] of the same compound?
The BT score was 0.

And the CP score [4]?
The CP score was 0.

Which IC50 (LeIspE) does the source give for `O=[N+]([O-])c1cc(-c2nnc(-c3nc4ccccc4s3)o2)cc([N+](=O)[O-])c1` [HGN-334, 2-(benzo[d]thiazol-2-yl)-5-(3,5-dinitrophenyl)-1,3,4-oxadiazole] here?
The IC50 was > 500 µM.

And the BC score (Bacillus cereus)?
The BC score was 0.

And the IC50 (AtIspD)?
Its IC50 is > 500 µM.

And the melting point?
The melting point was 180 to 185 °C.

What about the MS score (Mycobacterium smegmatis) of the same compound?
Its MS score is 0.

What about the PA score (Pseudomonas aeruginosa) of the same compound?
The PA score was 0.

And the EC score (Escherichia coli)?
The EC score was 0.

What about the IC50 (AtIspF) of the same compound?
Its IC50 is > 500 µM.

And the CX score (Corynebacterium xerosis)?
Its CX score is 0.

What about the ML score (Micrococcus luteus) of the same compound?
Its ML score is 0.

What about the KP score (Klebsiella pneumonia) of the same compound?
Its KP score is 0.

And the “MtIspD melting point change” value [1]?
The value was 0.0 °C.

What about the MtIspD melting temp [1] of the same compound?
Its MtIspD melting temp is 48.0 °C.

What about the Bleaching (lettuce seeds; 0.15 mM) of the same compound?
Its Bleaching is 0.

And the Germination (lettuce seeds; 0.15 mM)?
Its Germination is 0.

And the “Root Dev.” value (lettuce seeds; 0.15 mM)?
Its value is 0.

What about the Bleaching (lettuce seeds; 0.3 mM) of the same compound?
The Bleaching was 0.

And the Germination (lettuce seeds; 0.3 mM)?
Its Germination is 0.

And the “Root Dev.” value (lettuce seeds; 0.3 mM)?
The value was 0.

And the “LeIspE melting point change” value [2]?
Its value is −1.50 °C.

What about the LeIspE melting temp [2] of the same compound?
The LeIspE melting temp was 48.00 °C.

And the BT score [3]?
Its BT score is 0.

And the CP score [4]?
The CP score was 0.

Which results are given for `c1ccc(Cc2nnc(-c3cc4ccccc4[nH]3)o2)cc1` [HGN-221, 2-benzyl-5-(1H-indol-2-yl)-1,3,4-oxadiazole]?
IC50 (LeIspE; read-out: LeIspE IC50): > 1000 µM; BC score (Bacillus cereus): 0; IC50 (AtIspD; read-out: AtIspD IC50): 636 ± 68 µM; melting point: 211 to 215 °C; MS score (Mycobacterium smegmatis): 0; PA score (Pseudomonas aeruginosa): 0; EC score (Escherichia coli): 0; IC50 (AtIspF; read-out: AtIspF IC50): > 1000 µM; CX score (Corynebacterium xerosis): 0; ML score (Micrococcus luteus): 0; KP score (Klebsiella pneumonia): 0; MtIspD melting point change [1]: 0.5 °C; MtIspD melting temp [1]: 48.5 °C; Bleaching (lettuce seeds; 0.15 mM): 0; Germination (lettuce seeds; 0.15 mM): 0; Root Dev. (lettuce seeds; 0.15 mM): 0; Bleaching (lettuce seeds; 0.3 mM): 0; Germination (lettuce seeds; 0.3 mM): 0; Root Dev. (lettuce seeds; 0.3 mM): 0; LeIspE melting point change [2]: 0.00 °C; LeIspE melting temp [2]: 49.50 °C; BT score [3]: 0; CP score [4]: 0
